Source: patent US6638938B1, “Method for preventing tissue injury from hypoxia” (Cell Therapeutics, Inc., priority 1993, dated 2003)

Legend:
human neutrophils [1] = assay: neutrophil adherence to nylon fiber; format: cell-based
Source text: (§1) Human recombinant interleukin-1α (IL-1) was obtained from Hoffmann-LaRoche, Inc. (Nutley, N.J.), frozen inaliquots and thawed daily for use. Ketamine hydrochloride was obtained from Parke-Davis (Morris Plains, N.J.), xylazine from Haver (New York, N.J.), ^125I labeled bovine serum albumin (BSA) from ICN Radiochemicals (Irvine, Calif.), and heparin sodium from Elkins-Sinn, Inc. (Cherry Hill, N.J.). All other reagents were purchased from Sigma Chemical Co. (St. Louis, Mo.). Neutrophils were purified from human blood by well described methods. Venous blood was anticoagulated with heparin and the cellular elements were separated from platelet-rich plasma by centrifugation. Cell pellets were resuspended in platelet-poor plasma and diluted 1:4 with 6% dextran (Pharmacia Fine Chemicals, Piscataway, N.J.) in saline. Red cells were separated from leukocytes by sedimentation. Leukocyte-rich supernatants were then aspirated, underlain with Ficoll-Hypaque (Pharmacia Fine Chemicals), and centrifuged at 275×g to separate neutrophils and monocytes. Sedimented neutrophils were resuspended in Hank's balanced salt solution (HBSS). These preparations contained 94 to 96% neutrophils and 4 to 6% monocytes. All values were compared by analysis of variance and corrected by post hoc Student t tests for differences between groups. A p value of <0.05 was considered significant.
Neutrophil adherence was measured using the nylon fiber technique. Briefly, 50 mg of scrubbed nylon fiber (3-XXX), 3.81 cm type 200 (Travenol Laboratories, Deerfield, Ill.), was packed into the distal 10 mm of the barrels of tuberculin syringes. Ficoll-Hypaque-purified human neutrophils (1×10^7 cells) in plasma (total volume, 0.25 ml) with and without Lisofylline were then placed in the top of the nylon fiber column which was maintained at 37° C. After 90 sec, the plunger was inserted and the samples were eluted. Eluted neutrophils were counted by hemocytometer, and percentages of neutrophils adhering to the nylon fiber were calculated by the following formula: [formula]
(§2) Neutrophil chemotactic activity was determined by Boyden chamber assay and quantitated as the number of migrating PMN/5HPF using zymosan-activated serum (ZAS) as the chemoattractant (Repine et al., J. Reticuloendo. Soc. 24:217, 1978). Neutrophil adherence was assessed by quantitating the percentage of neutrophils adhering to nylon fibers following addition of phorbol myristate acetate (PMA 10-^6M, Sigma) (Rasp et al., J. Reticuloendo. Soc. 25:101, 1979). Neutrophil superoxide production was determined by quantitating superoxide dismutase inhibitable reduction of cytochrome c in response to PMA (10^−6 M) (Berger et al., J. Infectious Dis. 149:413, 1984).

human neutrophils [2] = assay: neutrophil superoxide anion production (cytochrome c reduction); format: cell-based
Source text: as §1
Release of superoxide anion by neutrophils was determined spectrophotometrically by measuring superoxide dismutase (SOD) inhibitable reduction of horse heart ferricytochrome C (Sigma Chemical Co., St. Louis, Mo.). Briefly, neutrophils (2×10^6) were placed in tubes containing HBSS (sufficient quantity to 2.0 ml), pooled human serum (1%), and SOD (2.98 mg) with and without Lisofylline. These mixtures were divided in half, and one part was incubated at 37° C. and one part at 4° C. After incubation, reaction mixtures were kept at 4° C. and centrifuged at 800×g for 15 min. Absorbance for paired supernatants was measured at 550 nm using a spectrophotometer (Model 35; Beckman Instruments, Inc., Fullerton, Calif.), averaged, and expressed at nanomoles of SOD-inhibitable cytochrome C reduced/20 min. In some experiments, neutrophils were incubated with PMA.
as §2

[3] = Neutrophils + PMA + Lisofylline 0.7 μM
[4] = Neutrophils + PMA + Lisofylline 7 μM
[5] = Neutrophils + PMA + Lisofylline 70 μM
[6] = Neutrophils + PMA + Lisofylline 700 μM

Structure (SMILES): C[C@@H](O)CCCCn1c(=O)c2c(ncn2C)n(C)c1=O [Lisofylline, 1-R-(5-hydroxyhexyl)-3,7-dimethylxanthine]
- Neutrophil Adherence (human neutrophils [1]; [3]): 35.8 ± 4.52 (4)δ %
- Neutrophil Adherence (human neutrophils [1]; [4]): 38.8 ± 1.38 (4)δ %
- Neutrophil Adherence (human neutrophils [1]; [5]): 25.6 ± 2.78 (5)δ %
- Neutrophil Adherence (human neutrophils [1]; [6]): 26.6 ± 6.03 (5)δ %
- stimulated human neutrophil adherence (human neutrophils [1]; PMA 10^-6 M, in vitro): reduced
- Neutrophil Superoxide Production in vitro (human neutrophils [2]; [3]): 9.2 ± 7.8 (4) μM cyto c reduced/30 min
- Neutrophil Superoxide Production in vitro (human neutrophils [2]; [4]): 82.3 ± 5.2 (4) μM cyto c reduced/30 min
- Neutrophil Superoxide Production in vitro (human neutrophils [2]; [5]): 80.6 ± 5.2 (4) μM cyto c reduced/30 min
- Neutrophil Superoxide Production in vitro (human neutrophils [2]; [6]): 92.0 ± 1.1 (4) μM cyto c reduced/30 min
- neutrophil superoxide anion generation (human neutrophils [2]; PMA 10^-6 M, in vitro, whether reduced): not
